Reference: patent publication US6057317A, “Heterocyclic compounds” (Adir et Compagnie, priority 1997, dated 2000)

How the values were obtained:
[1] = molecular target: imidazoline I1 receptor; assay: Measurement of in vitro affinity for the I1 receptor (radioligand displacement); assay type: binding; details: [3H] clonidine + 10 μM noradrenaline; bovine lateral reticulated nucleus
Experimental: (§1) The profile of binding to the imidazoline I1 and I2 receptors was determined for the compounds of the invention by evaluating the ability of those compounds to displace specific radioligands of the receptors in question.
(§2) The following Table indicates the radioligand used to label each receptor, the compound and the concentration selected to determine the non-specific fraction, and the tissue selected. […]
10 μM reticulated nucleus

[2] = tested on: SHR rats; assay: Antihypertensive activity in conscious rats; assay type: in vivo, rat; details: oral, dose of 15 mg/kg
Experimental: The tests were carried out in SHR rats. The animals are anaesthetised. A heparinised catheter is introduced into the left carotid artery and connected to a recording apparatus so as to measure the systolic and diastolic arterial pressure and the heart rate. The animals are returned to their cage and the tests are carried out after 24 hours.
The parameters to be measured stabilise during a period of at least 30 minutes, during which a maximum of 1.5 ml of saline solution is injected in such a manner as to optimise the measurements. Only animals whose arterial pressure is higher than or equal to 170 mmHg are included in the study.
The test compounds of the carrier are administered orally and the measurements are carried out before the treatment and every ten minutes after treatment, for 4 hours, and then 8 and 24 hours after treatment.

[3] = molecular target: imidazoline I2 receptor; assay: Measurement of in vitro affinity for the I2 receptor (radioligand displacement); assay type: binding; details: [3H] idazoxan + 10 μM noradrenaline; renal cortex of rabbit
Experimental: as §1, §2

Q: How did the Ki [1] turn out when `Cc1ccc2c(c1)N(C)CC(C1=NCCN1)O2` (stereo not drawn) [Example 2, 2-(4,5-Dihydro-1H-2-imidazolyl)-4,6-dimethyl-3,4-dihydro-2H-1,4-benzoxazineoxalate] was run?
A: 22 nM

Q: What about the “effect on arterial pressure” value [2] of the same compound?
A: allowed the arterial pressure to be normalized

Q: And the Ki [3]?
A: 2 nM
